Data reported in US12643859B2, “Pyridyl oxycarboxylic acid oxime derivative and preparation method therefor, weeding composition and application thereof” (Qingdao Kingagroot Chemical Compound Co., Ltd., priority 2018, dated 2026).

Tests used:
Type in all cases: in vivo
[1] = tested on: Monocotyledonous and dicotyledonous weed seeds and main crop seeds; experiment: Post-emergence test experiment (Table 3, 1000 g a.i./ha); details: 3 weeks in greenhouse, fresh weight inhibition
Summary of the method: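 Weeds and crops (wheat, corn, rice, soybean, cotton, oilseed, millet, sorghum) grown in soil in the greenhouse and sprayed post-emergence at 2–3 leaf stage, 2 weeks after sowing. Compound in acetone with tween-80 plus methyl oleate emulsible concentrate (1.5 L/ha) as synergist, diluted in water. Fresh weight inhibition scored after 3 weeks.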

[2] = tested on: Cyperus iria; experiment: Post-emergence test experiment, weed control; details: post-emergence spray, 600 g a.i./ha plus water 450 kg/ha, 3 weeks in greenhouse
Protocol: (§1) The above described growth inhibition rate is fresh weight inhibition rate.
(§2) Post-emergence test experiment: Monocotyledonous and dicotyledonous weed seeds and main crop seeds (i. e. wheat, corn, rice, soybean, cotton, oilseed, millet and sorghum.) were put into a plastic pot loaded with soil. Then covered with 0.5-2 cm soil, the seeds were allowed to grow in good greenhouse environment. The test plants were treated at 2-3 leaf stage 2 weeks after sowing. The test compounds of the invention were dissolved with acetone respectively, then added with tween-80, and using 1.5 liters per hectare of an emulsible concentrate of methyl oleate as a synergist, and diluted by certain amount of water to certain concentration. The solution was sprayed to the plants with a sprayer. Then the plants were cultured for 3 weeks in the greenhouse, and the experiment result of weed controlling effect was listed in tables 3-4.

[3] = tested on: Rice; experiment: Transplanted rice safety evaluation; details: 1000 g a.i./ha, transplanted 3 leaf stage japonica rice, treated 5 days after transplantation, 21 days after treatment
Protocol: as §1
In addition, the rice field soil that loaded into the 1/1,000,000 ha pot was leveled to keep water storage at 3-4 cm depth. The 3 leaf stage rice (japonica rice) was transplanted at 3 cm of transplanting depth the next day. The compound of the present invention was treated by the same way after 5 days of transplantation.
(§3) The fertility condition of Scirpus juncoides, Sagittaria trifolia and Monochoria vaginalis 14 days after the treatment of the compound of the invention and the fertility condition of rice 21 days after the treatment of the compound of the invention respectively with the naked eye. Evaluate the weed control effect with 0-5 activity standard level.

[4] = tested on: Indica rice; experiment: Post-emergence test experiment, crop selectivity; details: post-emergence spray, 600 g a.i./ha plus water 450 kg/ha, 3 weeks in greenhouse
Protocol: as §1, §2

[5] = tested on: Japonica rice; experiment: Post-emergence test experiment, crop selectivity; details: post-emergence spray, 600 g a.i./ha plus water 450 kg/ha, 3 weeks in greenhouse
Protocol: as §1, §2

[6] = tested on: Monochoria Vaginalis; experiment: Weed control effect evaluation in rice field; details: 1000 g a.i./ha, paddy water application at 0.5 leaf stage, 14 days after treatment; weeds resistant to pyrazosulfuron-ethyl and penoxsulam
Source text: as §1
(§4) Transplanted rice safety evaluation and weed control effect evaluation in rice field: Rice field soil was loaded into a 1/1,000,000 ha pot. The seeds of Scirpus juncoides, Sagittaria trifolia and Monochoria vaginalis were sowed and gently covered with soil, then left to stand still in greenhouse in the state of 0.5-1 cm of water storage. The tuber of Sagittaria trifolia was planted in the next day or 2 days later. It was kept at 3-4 cm of water storage thereafter. The weeds were treated by dripping the WP or SC water diluents prepared according to the common preparation method of the compounds of the present invention with pipette homogeneously to achieve specified effective amount when Scirpus juncoides, and Monochoria vaginalis reached 0.5 leaf stage and Sagittaria trifolia reached the time point of primary leaf stage.
as §3, with “level. Many compounds show excellent activity and selectivity.” for “level.”

[7] = tested on: Sagittaria trifolia; experiment: Weed control effect evaluation in rice field; details: 1000 g a.i./ha, paddy water application at primary leaf stage, 14 days after treatment; weeds resistant to pyrazosulfuron-ethyl and penoxsulam
Source text: as §1, §4
as §3, with “level. Many compounds show excellent activity and selectivity.” for “level.”

[8] = tested on: Scirpus juncoides; experiment: Weed control effect evaluation in rice field; details: 1000 g a.i./ha, paddy water application at 0.5 leaf stage, 14 days after treatment; weeds resistant to pyrazosulfuron-ethyl and penoxsulam
Source text: as §1, §4
as §3, with “level. Many compounds show excellent activity and selectivity.” for “level.”

Structure (SMILES)	Activity level (growth inhibition rate) Digitaria sanguinalis [1]	Activity level (growth inhibition rate) Echinochloa crusgalli [1]	Activity level (growth inhibition rate) Galium spurium [1]	Activity level (growth inhibition rate) Leptochloa chinensis [1]	Activity level (growth inhibition rate) Monochoria Vaginalis [1]	Activity level (growth inhibition rate) Murdannia triquetra [1]	Activity level (growth inhibition rate) Setaria viridis [1]	Activity level (fresh weight growth inhibition rate), Cyperus iria [2]	Safety, 0-5 activity standard level, Rice [3]	Activity level (fresh weight growth inhibition rate), Indica rice [4]	Activity level (fresh weight growth inhibition rate), Japonica rice [5]	Weed control effect, 0-5 activity standard level, Monochoria Vaginalis [6]	Weed control effect, 0-5 activity standard level, Sagittaria trifolia [7]	Weed control effect, 0-5 activity standard level, Scirpus juncoides [8]
CC(=NOC(=O)C(C)Oc1nc(F)c(Cl)c(N)c1Cl)c1ccc(Cl)cc1 (stereo not shown) [Compound 70]	5 (Level 5: the growth inhibition rate is greater than 85%)	5 (Level 5: the growth inhibition rate is greater than 85%)	5 (Level 5: the growth inhibition rate is greater than 85%)	5 (Level 5: the growth inhibition rate is greater than 85%)	5 (Level 5: the growth inhibition rate is greater than 85%)	5 (Level 5: the growth inhibition rate is greater than 85%)	5 (Level 5: the growth inhibition rate is greater than 85%)	5 (Level 5: the growth inhibition rate is greater than 85%)	0 (Level 0: the growth inhibition rate is less than 5%)	0 (Level 0: the growth inhibition rate is less than 5%)	0 (Level 0: the growth inhibition rate is less than 5%)	5 (Level 5: the growth inhibition rate is greater than 85%)	4 (Level 4: the growth inhibition rate is equal to or greater than 60% and less than 85%)	4 (Level 4: the growth inhibition rate is equal to or greater than 60% and less than 85%)
COc1ccccc1C(F)=NOC(=O)C(C)Oc1nc(F)c(Cl)c(N)c1Cl (stereo not shown) [Compound 84]	5 (Level 5: the growth inhibition rate is greater than 85%)	5 (Level 5: the growth inhibition rate is greater than 85%)	5 (Level 5: the growth inhibition rate is greater than 85%)	5 (Level 5: the growth inhibition rate is greater than 85%)	5 (Level 5: the growth inhibition rate is greater than 85%)	5 (Level 5: the growth inhibition rate is greater than 85%)	5 (Level 5: the growth inhibition rate is greater than 85%)	5 (Level 5: the growth inhibition rate is greater than 85%)	0 (Level 0: the growth inhibition rate is less than 5%)	0 (Level 0: the growth inhibition rate is less than 5%)	0 (Level 0: the growth inhibition rate is less than 5%)	5 (Level 5: the growth inhibition rate is greater than 85%)	4 (Level 4: the growth inhibition rate is equal to or greater than 60% and less than 85%)	4 (Level 4: the growth inhibition rate is equal to or greater than 60% and less than 85%)
